In general, DC50 refers to the midpoint of the concentration-degradation curve. As usually defined, the Dmax is the largest share of the target that was removed.

The target of this experiment is T1, BRM (Homo sapiens, UniProt P51531).
T1 construct: In-Cell Western Screen of BRM Degradation in SW1573 Cells; endogenous in cells; host or cells: SW1573
In words: In-cell Western screen of BRM degradation in SW1573 cells (Dmax and DC50). In kind it is cell-based. The essentials:
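SW1573 cells were treated with compound overnight (18-20 h; final DMSO 0.1%), then fixed in 4% PFA, permeabilized with Triton X-100 and blocked. BRM was detected by in-cell Western using 800 nm anti-rabbit and 680 nm anti-mouse secondaries, and Dmax and DC50 were derived from the LI-COR Odyssey signal.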

Setting [1] is: BRM degradation, read-out: BRM DC50.
[2] abbreviates: SW1573, % degraded, when tested at the top concentration of between 0.3 and 10 μM, read-out: BRM Dmax (%).
[3] abbreviates: BRM degradation, SW1573 cells, Table 2D.
Setting [4] is: BRM degradation, SW1573 cells, Table 2D, read-out: *DC50.

Like-named read-outs stand apart in the source and are kept apart here. Some results are limits rather than exact numbers.

T1 sequence (P51531 whole entry): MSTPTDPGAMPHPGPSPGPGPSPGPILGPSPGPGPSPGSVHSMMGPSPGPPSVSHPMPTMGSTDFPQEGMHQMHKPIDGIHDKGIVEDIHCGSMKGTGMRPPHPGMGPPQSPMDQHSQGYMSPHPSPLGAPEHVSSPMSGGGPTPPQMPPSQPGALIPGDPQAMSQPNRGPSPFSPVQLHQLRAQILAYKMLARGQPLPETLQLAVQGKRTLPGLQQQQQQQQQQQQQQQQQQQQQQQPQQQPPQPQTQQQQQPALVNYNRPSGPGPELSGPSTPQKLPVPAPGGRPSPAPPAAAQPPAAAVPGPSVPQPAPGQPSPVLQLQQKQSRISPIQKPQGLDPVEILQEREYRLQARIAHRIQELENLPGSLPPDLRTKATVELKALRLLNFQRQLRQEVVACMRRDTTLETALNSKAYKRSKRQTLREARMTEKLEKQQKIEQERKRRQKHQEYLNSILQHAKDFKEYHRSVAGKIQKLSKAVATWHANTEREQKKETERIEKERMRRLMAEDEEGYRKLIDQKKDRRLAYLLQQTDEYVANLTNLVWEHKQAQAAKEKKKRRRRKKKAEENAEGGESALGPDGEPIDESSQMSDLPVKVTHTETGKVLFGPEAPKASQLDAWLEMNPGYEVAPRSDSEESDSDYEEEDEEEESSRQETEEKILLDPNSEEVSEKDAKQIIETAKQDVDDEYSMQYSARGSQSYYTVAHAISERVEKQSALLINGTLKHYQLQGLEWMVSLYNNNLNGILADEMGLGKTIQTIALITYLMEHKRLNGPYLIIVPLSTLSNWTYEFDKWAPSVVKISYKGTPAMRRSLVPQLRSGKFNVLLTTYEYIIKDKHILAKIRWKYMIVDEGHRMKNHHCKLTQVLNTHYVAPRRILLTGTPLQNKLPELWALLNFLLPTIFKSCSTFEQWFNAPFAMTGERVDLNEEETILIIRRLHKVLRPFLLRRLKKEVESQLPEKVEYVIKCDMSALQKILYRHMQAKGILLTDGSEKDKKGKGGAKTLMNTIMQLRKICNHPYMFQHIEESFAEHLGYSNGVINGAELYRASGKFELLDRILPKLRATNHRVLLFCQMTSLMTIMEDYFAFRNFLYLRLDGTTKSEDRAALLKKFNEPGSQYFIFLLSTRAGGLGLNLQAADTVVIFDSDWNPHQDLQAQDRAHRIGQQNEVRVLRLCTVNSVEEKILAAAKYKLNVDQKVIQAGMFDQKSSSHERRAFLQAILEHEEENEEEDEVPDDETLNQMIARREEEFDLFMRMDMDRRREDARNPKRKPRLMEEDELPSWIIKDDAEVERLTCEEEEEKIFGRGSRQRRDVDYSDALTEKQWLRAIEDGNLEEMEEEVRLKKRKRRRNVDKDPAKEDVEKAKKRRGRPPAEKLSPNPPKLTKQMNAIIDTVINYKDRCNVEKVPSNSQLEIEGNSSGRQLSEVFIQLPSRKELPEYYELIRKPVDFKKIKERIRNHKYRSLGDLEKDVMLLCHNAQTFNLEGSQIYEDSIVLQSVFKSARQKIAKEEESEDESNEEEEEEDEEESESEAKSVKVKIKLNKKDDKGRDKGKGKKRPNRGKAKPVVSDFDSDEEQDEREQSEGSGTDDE

For the molecule `Cc1cc([C@@H](C(=O)N2C[C@H](O)C[C@H]2C(=O)N[C@@H](COCCCCCc2cc(-c3ccccc3O)nnc2N)c2ccc(-c3scnc3C)cc2)C(C)C)on1` [compound 529, (2S,4R)-N-((R)-2-((5-(3-amino-6-(2-hydroxyphenyl)pyridazin-4-yl)pentyl)oxy)-1-(4-(4-methylthiazol-5-yl)phenyl)ethyl)-4-hydroxy-1-((S)-3-methyl-2-(3-methylisoxazol-5-yl)butanoyl)pyrrolidine-2-carboxamide], the DC50 under setting [1] is above 30 nM.
Same read-out and setting: to `Cc1cc([C@H](C(=O)N2C[C@H](O)C[C@H]2C(=O)N[C@@H](COCCCCCc2cc(-c3ccccc3O)nnc2N)c2ccc(-c3scnc3C)cc2)C(C)C)on1` [compound 530, (2S,4R)-N-((R)-2-((5-(3-amino-6-(2-hydroxyphenyl)pyridazin-4-yl)pentyl)oxy)-1-(4-(4-methylthiazol-5-yl)phenyl)ethyl)-4-hydroxy-1-((R)-3-methyl-2-(3-methylisoxazol-5-yl)butanoyl)pyrrolidine-2-carboxamide] belongs above 30 nM; to `Cc1ncsc1-c1ccc([C@H](CCC#N)NC(=O)[C@@H]2C[C@@H](O)CN2C(=O)[C@H](c2cc(OCCN3CCC(O[C@H]4C[C@H](Oc5cc(N6C7CCC6CN(c6cc(-c8ccccc8O)nnc6N)C7)ccn5)C4)CC3)no2)C(C)C)cc1` [compound 532, (2S,4R)-1-((2S)-2-(3-(2-(4-((1r,3S)-3-((4-(3-(3-amino-6-(2-hydroxyphenyl)pyridazin-4-yl)-3,8-diazabicyclo[3.2.1]octan-8-yl)pyridin-2-yl)oxy)cyclobutoxy)piperidin-1-yl)ethoxy)isoxazol-5-yl)-3-methylbutanoyl)-N-((S)-3-cyano-1-(4-(4-methylthiazol-5-yl)phenyl)propyl)-4-hydroxypyrrolidine-2-carboxamide], above 30 nM.
Consider `Cc1ncsc1-c1ccc([C@H](CCC#N)NC(=O)[C@@H]2C[C@@H](O)CN2C(=O)[C@@H](c2cc(OCCN3CCC(O[C@H]4C[C@H](Oc5cc(N6C7CCC6CN(c6cc(-c8ccccc8O)nnc6N)C7)ccn5)C4)CC3)no2)C(C)C)cc1` [compound 533, (2S,4R)-1-((2R)-2-(3-(2-(4-((1r,3R)-3-((4-(3-(3-amino-6-(2-hydroxyphenyl)pyridazin-4-yl)-3,8-diazabicyclo[3.2.1]octan-8-yl)pyridin-2-yl)oxy)cyclobutoxy)piperidin-1-yl)ethoxy)isoxazol-5-yl)-3-methylbutanoyl)-N-((S)-3-cyano-1-(4-(4-methylthiazol-5-yl)phenyl)propyl)-4-hydroxypyrrolidine-2-carboxamide], for which the DC50 under setting [1] was below 2.5 nM. For the same molecule, the greatest degradation seen (Dmax) under setting [2] is above 75%.
As to `Cc1cc([C@@H](C(=O)N2C[C@H](O)C[C@H]2C(=O)N[C@@H](C)c2ccc(-c3scnc3C)cc2)[C@H](C)COCCn2cc(-c3cc(-c4ccccc4O)nnc3N)cn2)on1` [compound 534, (2S,4R)-1-((2S,3S)-4-(2-(4-(3-amino-6-(2-hydroxyphenyl)pyridazin-4-yl)-1 H-pyrazol-1-yl)ethoxy)-3-methyl-2-(3-methylisoxazol-5-yl)butanoyl)-4-hydroxy-N-((S)-1-(4-(4-methylthiazol-5-yl)phenyl)ethyl)pyrrolidine-2-carboxamide], under setting [1], the DC50 is above 30 nM.
For `Cc1ncsc1-c1ccc([C@H](C)NC(=O)[C@@H]2C[C@@H](O)CN2C(=O)[C@@H](c2cc(OCC[C@H]3CCN(C[C@H]4C[C@H](Oc5cc(N6C7CCC6CN(c6cc(-c8ccccc8O)nnc6N)C7)ccn5)C4)[C@H](C)C3)no2)C(C)C)cc1` [compound 535, (2S,4R)-1-((2R)-2-(3-(2-((2R,4S)-1-(((1r,3R)-3-((4-(3-(3-amino-6-(2-hydroxyphenyl)pyridazin-4-yl)-3,8-diazabicyclo[3.2.1]octan-8-yl)pyridin-2-yl)oxy)cyclobutyl)methyl)-2-methylpiperidin-4-yl)ethoxy)isoxazol-5-yl)-3-methylbutanoyl)-4-hydroxy-N-((S)-1-(4-(4-methylthiazol-5-yl)phenyl)ethyl)pyrrolidine-2-carboxamide], under setting [1], the DC50 was below 2.5 nM. The Dmax under setting [2] is above 75%.
Under setting [3], `Cc1ncsc1-c1ccc([C@H](C)NC(=O)[C@@H]2C[C@@H](O)CN2C(=O)[C@H](c2cc(OCCN3CCC(O[C@H]4C[C@H](Oc5cc(N6C7CCC6CN(c6cc(-c8ccccc8)nnc6N)C7)ccn5)C4)CC3)no2)C(C)C)cc1` [compound 536, (2S,4R)-1-((2S)-2-(3-(2-(4-((1r,3S)-3-((4-(3-(3-amino-6-phenylpyridazin-4-yl)-3,8-diazabicyclo[3.2.1]octan-8-yl)pyridin-2-yl)oxy)cyclobutoxy)piperidin-1-yl)ethoxy)isoxazol-5-yl)-3-methylbutanoyl)-4-hydroxy-N-((S)-1-(4-(4-methylthiazol-5-yl)phenyl)ethyl)pyrrolidine-2-carboxamide] had a DC50 above 30 nM.
Same read-out and setting: to `Cc1ncsc1-c1ccc([C@H](C)NC(=O)[C@@H]2C[C@@H](O)CN2C(=O)[C@@H](c2cc(OCCN3CCC(O[C@H]4C[C@H](Oc5cc(N6C7CCC6CN(c6cc(-c8ccccc8)nnc6N)C7)ccn5)C4)CC3)no2)C(C)C)cc1` [compound 537, (2S,4R)-1-((2R)-2-(3-(2-(4-((1r,3R)-3-((4-(3-(3-amino-6-phenylpyridazin-4-yl)-3,8-diazabicyclo[3.2.1]octan-8-yl)pyridin-2-yl)oxy)cyclobutoxy)piperidin-1-yl)ethoxy)isoxazol-5-yl)-3-methylbutanoyl)-4-hydroxy-N-((S)-1-(4-(4-methylthiazol-5-yl)phenyl)ethyl)pyrrolidine-2-carboxamide] belongs above 30 nM.
Take `Cc1cc([C@H](C(=O)N2C[C@H](O)C[C@H]2C(=O)N[C@@H](C)c2ccc(-c3scnc3C)cc2)[C@H](C)COCCn2cc(-c3cc(-c4ccccc4O)nnc3N)cn2)on1` [compound 538, (2S,4R)-1-((2R,3S)-4-(2-(4-(3-amino-6-(2-hydroxyphenyl)pyridazin-4-yl)-1H-pyrazol-1-yl)ethoxy)-3-methyl-2-(3-methylisoxazol-5-yl)butanoyl)-4-hydroxy-N-((S)-1-(4-(4-methylthiazol-5-yl)phenyl)ethyl)pyrrolidine-2-carboxamide]: the 50% degradation concentration (DC50) under setting [4] was above 30 nM.
Take `Cc1ncsc1-c1cc(F)c([C@H](C)NC(=O)[C@@H]2C[C@@H](O)CN2C(=O)[C@@H](c2cc(OCCN3CCC(O[C@H]4C[C@H](Oc5cc(N6C7CCC6CN(c6cc(-c8ccccc8O)nnc6N)C7)ccn5)C4)CC3)no2)C(C)C)cn1` [compound 539, (2S,4R)-1-((2R)-2-(3-(2-(4-((1r,3R)-3-((4-(3-(3-amino-6-(2-hydroxyphenyl)pyridazin-4-yl)-3,8-diazabicyclo[3.2.1]octan-8-yl)pyridin-2-yl)oxy)cyclobutoxy)piperidin-1-yl)ethoxy)isoxazol-5-yl)-3-methylbutanoyl)-N-((S)-1-(4-fluoro-6-(4-methylthiazol-5-yl)pyridin-3-yl)ethyl)-4-hydroxypyrrolidine-2-carboxamide]: the Dmax (BRM degradation, SW1573 cells, Table 2D, read-out: **Dmax (%) (% degraded)) is above 75%. Further, the DC50 under setting [4] was below 2.5 nM.

The values are drawn from patent US12539292B2, “BRM targeting compounds and associated methods of use” (Arvinas Operations, Inc., priority 2018, dated 2026).
